Source: US20150203444A1, “POLYMORPHS OF N-((S)-3-AMINO-1-(HYDROXYAMINO)-3-METHYL-1-OXOBUTAN-2-YL)-4-(((1R,2R)-2-(HYDROXYMETHYL)CYCLOPROPYL)BUTA-1,3-DIYNYL)BENZAMIDE” (Achaogen, Inc., priority 2011, published 2015)
Counter-ions that a name gives are not always drawn.

What was measured:
[1] = Solid-state properties of the polymorphs (summary statement); type: physicochemical
[2] = Stability at elevated temperature (XRPD form check and HPLC purity); type: physicochemical; conditions: for % AUC (Following exposure): HPLC purity after seven days at 60° C.; for % AUC (Control): HPLC purity, control before exposure
Method: Approximately 10 mg of Form A, Form B and Form C were weighed to individual 4-mL amber vials covered with a kimwipe and stored in an oven at 60° C. and ambient pressure. After seven days of exposure, the solids were be analyzed by XRPD to check for form conversion and HPLC for purity (see Table 5).

[3] = Competitive slurry experiments (XRPD); type: physicochemical; conditions: competitive slurry of Forms A, B and C together, IPA:IBAc (10:90), room temperature
Method: Approximately 10 mg of Form A, B and C were weighed into 2.0-mL vials equipped with a stir bar. 0.5 mL of solvent was added and the resulting free flowing slurry was allowed to equilibrate with stirring at room temperature. Samples were pulled at one day and seven day time points, filtered through 0.45 micron centrifuge filters, dried overnight at room temperature under vacuum and analyzed by XRPD (see Table 7).

[4] = Stability at elevated humidity (XRPD form check); type: physicochemical; conditions: summary statement
Method: Approximately 30 mg of Form A, Form B and Form C were placed on an XRPD slide and kept inside a glass jar containing a water solution saturated with NaCl. The solution maintains 75% relative humidity inside the jar. The container was covered with aluminum foil to prevent exposure to light. The sample was kept in this environment for seven days at room temperature. After this time period the slide was removed from the chamber and analyzed immediately by XRPD (see Table 4).

[5] = tested on: Klebsiella pneumoniae ATCC43816; assay: MIC by broth microdilution (CLSI), AKPN001; type: cell-based; conditions: ATCC43816, read-out: Minimum Inhibitory Concentration (MIC) AKPN001
Method: (§1) Bacterial isolates were cultivated from −70° C. frozen stocks by overnight passages at 35° C. in ambient air on Mueller-Hinton agar (Beckton Dickinson, Franklin Lakes, N.J.). Clinical isolates tested were obtained from various geographically diverse hospitals in the US and abroad (Focus Diagnostics, Herndon, Va. and JMI, North Liberty, Iowa). Quality control strains were from the American Type Culture Collection (ATCC; Rockville, Md.).
(§2) Minimum Inhibitory Concentrations (MICs) were determined by the broth microdilution method in accordance with the Clinical and Laboratory Standards Institute (CLSI) guidelines. In brief, organism suspensions were adjusted to a 0.5 McFarland standard to yield a final inoculum between 3×10^5 and 7×10^5 colony-forming units (CFU)/mL. Drug dilutions and inocula were made in sterile, cation adjusted Mueller-Hinton Broth (Beckton Dickinson). An inoculum volume of 100 μL was added to wells containing 100 μL of broth with 2-fold serial dilutions of drug. All inoculated microdilution trays were incubated in ambient air at 35° C. for 18-24 h. Following incubation, the lowest concentration of the drug that prevented visible growth (OD600 nm<0.05) was recorded as the MIC. Performance of the assay was monitored by the use of laboratory quality-control strains and levofloxacin, a compound with a defined MIC spectrum, in accordance with CLSI guidelines. […]

[6] = tested on: Pseudomonas aeruginosa ATCC27853; assay: MIC by broth microdilution (CLSI), APAE001; type: cell-based; conditions: ATCC27853, read-out: Minimum Inhibitory Concentration (MIC) APAE001
Method: as §1, §2

[7] = tested on: clinical isolate of Pseudomonas aeruginosa expressing a normal level of efflux activity; assay: MIC by broth microdilution (CLSI), APAE002; type: cell-based; conditions: read-out: Minimum Inhibitory Concentration (MIC) APAE002
Method: as §1, §2

E. coli ATCC25922 = assay: MIC by broth microdilution (CLSI), AECO001; type: cell-based; conditions: Escherichia coli, ATCC25922, read-out: Minimum Inhibitory Concentration (MIC) AECO001
Method: as §1, §2

Compound	Hygroscopicity ([1]; solid)	% AUC (Following exposure) [2]	% AUC (Control) [2]	XRPD Final Form (1 day) [3]	Thermodynamic stability among the three polymorphic forms [1]	Stability to prolonged thermal stress ([2]; summary statement)	Stability to exposure to elevated relative humidity [4]	MIC [5]	MIC [6]	MIC [7]	MIC (E. coli ATCC25922)
CC(C)(N)[C@H](NC(=O)c1ccc(C#CC#C[C@@H]2C[C@H]2CO)cc1)C(=O)NO [Form A, N—((S)-3-amino-1-(hydroxyamino)-3-methyl-1-oxobutan-2-yl)-4-(((1R,2R)-2-(hydroxymethyl)cyclopropyl)buta-1,3-diynyl)benzamide]	moderately hygroscopic	94.5 % AUC	99.2 % AUC	A + B							
CC(C)(N)[C@H](NC(=O)c1ccc(C#CC#C[C@@H]2C[C@H]2CO)cc1)C(=O)NO [Form B, N—((S)-3-amino-1-(hydroxyamino)-3-methyl-1-oxobutan-2-yl)-4-(((1R,2R)-2-(hydroxymethyl)cyclopropyl)buta-1,3-diynyl)benzamide]		97.4 % AUC	99.6 % AUC	A + B	most thermodynamically stable	exhibited stability	exhibited stability				
CC(C)(N)[C@H](NC(=O)c1ccc(C#CC#C[C@@H]2C[C@H]2CO)cc1)C(=O)NO [Form C, N—((S)-3-amino-1-(hydroxyamino)-3-methyl-1-oxobutan-2-yl)-4-(((1R,2R)-2-(hydroxymethyl)cyclopropyl)buta-1,3-diynyl)benzamide]		95.5 % AUC	99.0 % AUC	A + B	metastable						
CC(C)(N)[C@H](NC(=O)c1ccc(C#CC#C[C@@H]2C[C@H]2CO)cc1)C(=O)NO [I (trifluoroacetate salt), N—((S)-3-amino-1-(hydroxyamino)-3-methyl-1-oxobutan-2-yl)-4-(((1R,2R)-2-(hydroxymethyl)cyclopropyl)buta-1,3-diynyl)benzamide trifluoroacetate salt]								< 2 µg/mL	< 2 µg/mL	< 2 µg/mL	< 2 µg/mL
